Laboratory results reported in patent publication US11236086B2, “Substituted pyrrolopyridines as inhibitors of activin receptor-like kinase” (BLUEPRINT MEDICINES CORPORATION, priority 2017, dated 2022).

How the values were obtained:
[1] = biological target: T1, human ALK2 R206H (Homo sapiens, UniProt Q04771, R206H); test: Cell-based ALK2-R206H cell activity assay (Smad1-Ser463/Ser465 phosphorylation by AlphaLISA in HEK293-ALK2-R206H cells); settings: phospho-Smad1 AlphaLISA, read-out: Cell Line (Cell Assay, IC50 class)
T1 construct: expressed in transfected cells; host or cells: HEK293 (ATCC CRL1573), lentivirus transduction, blasticidin selection
T1 sequence (Q04771 21-509 R206H): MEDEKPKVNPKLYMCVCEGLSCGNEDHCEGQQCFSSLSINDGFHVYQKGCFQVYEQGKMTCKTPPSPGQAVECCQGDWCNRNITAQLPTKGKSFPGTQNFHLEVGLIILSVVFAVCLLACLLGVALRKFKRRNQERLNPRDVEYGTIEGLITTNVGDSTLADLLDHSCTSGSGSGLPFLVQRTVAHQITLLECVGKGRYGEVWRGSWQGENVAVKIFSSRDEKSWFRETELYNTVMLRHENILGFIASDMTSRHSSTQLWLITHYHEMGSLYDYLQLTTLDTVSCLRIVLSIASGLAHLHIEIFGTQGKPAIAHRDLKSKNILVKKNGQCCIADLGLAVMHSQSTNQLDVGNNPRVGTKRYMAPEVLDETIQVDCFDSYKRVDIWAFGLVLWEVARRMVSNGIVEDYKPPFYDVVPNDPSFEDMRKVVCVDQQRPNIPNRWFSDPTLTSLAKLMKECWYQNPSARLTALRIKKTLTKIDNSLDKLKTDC
Summary of the method: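 HEK293 stable line expressing human ALK2 R206H with C-terminal FLAG, plated overnight in serum-free medium. Cells were treated 2-3 h with compound over 10 3-fold doses, top 10 μM or 1 μM, in duplicate. Phospho-Smad1 Ser463/465 in lysate was read by AlphaLISA; IC50 was normalised to DMSO (0%) and 1 μM LDN193189 (100%).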

[2] = biological target: T2, ALK2R206H (mutant ALK2, N-terminally tagged with GST) (Homo sapiens, UniProt Q04771, R206H); test: ALK binding assay (LANTHASCREEN TR-FRET competitive binding, displacement of Kinase Tracer 178); settings: read-out: Binding Assay (IC50 class)
T2 construct: purchased Carna Bioscience or ThermoFisher 09-148 or PV6232
T2 sequence (Q04771 21-509 R206H): T1 sequence (Q04771 21-509 R206H)
Summary of the method: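 GST-tagged ALK2 R206H (2-5 nM) mixed with Eu-anti-GST antibody (4-10 nM), Kinase Tracer 178 (50 nM, near its Kd) and compound titration (1% DMSO) in Kinase Buffer A, 30 min at room temperature. Tracer displacement read as TR-FRET ratio, normalized to controls; IC50 from 4-parameter fit.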

Row | Structure (SMILES) | IC50 [1] [µM] | IC50 [2] [µM]
1 | Cn1cc(-c2cc3c(N4CCN(C(=O)OC5COC5)CC4)ccnc3[nH]2)nc1Cl [Compound 275] | ≤ 0.1 | ≤ 0.01
2 | Cn1cc(-c2[nH]c3nccc(N4CCN(C(=O)OC5COC5)CC4)c3c2Cl)cn1 [Compound 276] | ≤ 0.1 | ≤ 0.01
3 | Cn1cc(-c2cc3c(N4CCN(C(=O)OC5COC5)CC4)ccnc3[nH]2)c(Cl)n1 [Compound 277] | ≤ 0.1 | ≤ 0.01
4 | Cn1cc(-c2cc3c(N4CCN(C(=O)[C@H]5CC[C@H](C#N)CC5)CC4)ccnc3[nH]2)cn1 [Compound 278] | ≤ 0.1 | ≤ 0.01
5 | O=C(OC1COC1)N1CCN(c2ccnc3[nH]c(-c4cnn(C(F)F)c4)cc23)CC1 [Compound 279] | ≤ 0.1 | ≤ 0.01
6 | O=C(OC1COC1)N1CCN(c2ccnc3[nH]c(-c4cn(C(F)F)cn4)cc23)CC1 [Compound 280] | ≤ 0.1 | ≤ 0.01
7 | CCOC(=O)N1CCN(c2ccnc3[nH]c(-c4cnn(S(C)(=O)=O)c4)cc23)CC1 [Compound 281] | 0.1 to 0.5 | ≤ 0.01
8 | CCOC(=O)N1CCN(c2ccnc3[nH]c(-c4ccc(C(C)(C)C#N)cn4)cc23)CC1 [Compound 282] | ≤ 0.1 | ≤ 0.01
9 | O=C(C1CC1)N1CCN(c2ccnc3[nH]c(-c4ccc(C5(O)COC5)cc4)cc23)CC1 [Compound 283] | 0.1 to 0.5 | ≤ 0.01
10 | Cc1nc(-c2[nH]c3nccc(N4CCN(C(=O)OC5CCC5)CC4)c3c2C#N)cn1C [Compound 284] | ≤ 0.1 | ≤ 0.01
11 | CC#Cc1c(-c2cnn(C)c2)[nH]c2nccc(N3CCN(C(=O)OC4COC4)CC3)c12 [Compound 285] | ≤ 0.1 | ≤ 0.01
12 | COCCOc1ccc(-c2cc3c(N4CCN(C(=O)C5CC5)CC4)ccnc3[nH]2)cc1 [Compound 286] | 0.1 to 0.5 | ≤ 0.01
13 | C[Si](C)(O)c1ccc(-c2cc3c(N4CCN(C(=O)C5CC5)CC4)ccnc3[nH]2)cc1 [Compound 287] | 0.1 to 0.5 | ≤ 0.01
14 | Cc1nc(-c2[nH]c3nccc(N4CCN(C(=O)OC5COC5)CC4)c3c2C#N)cn1C [Compound 288] | ≤ 0.1 | ≤ 0.01
15 | Cn1cc(-c2[nH]c3nccc(N4CCN(C(=O)O[C@H]5CCOC5)CC4)c3c2C#N)cn1 [Compound 289] | ≤ 0.1 | ≤ 0.01
16 | CCn1cnc(-c2[nH]c3nccc(N4CCN(C(=O)OC5COC5)CC4)c3c2C#N)c1 [Compound 290] | ≤ 0.1 | ≤ 0.01
17 | Cc1nc(-c2cc3c(N4CCN(C(=O)OCC(F)F)CC4)ccnc3[nH]2)sc1C [Compound 291] | ≤ 0.1 | ≤ 0.01
18 | Cn1cc(-c2cc3c(N4CCN(C(=O)OCCC(F)(F)F)CC4)ccnc3[nH]2)cn1 [Compound 292] | 0.1 to 0.5 | ≤ 0.01
19 | Cc1nc(-c2[nH]c3nccc(N4CCN(C(=O)OC5CCC5)CC4)c3c2C#N)cs1 [Compound 294] | ≤ 0.1 | ≤ 0.01
20 | Cn1cc(-c2[nH]c3nccc(N4CCN(C(=O)O[C@H]5C[C@H](F)C5)CC4)c3c2C#N)cn1 [Compound 295] | ≤ 0.1 | ≤ 0.01
21 | Cn1cnc(-c2[nH]c3nccc(N4CCN(C(=O)O[C@H]5C[C@@H](F)C5)CC4)c3c2C#N)c1 [Compound 296] | ≤ 0.1 | ≤ 0.01
22 | Cn1cnc(-c2[nH]c3nccc(N4CCN(C(=O)O[C@H]5C[C@H](F)C5)CC4)c3c2C#N)c1 [Compound 297] | ≤ 0.1 | ≤ 0.01
23 | Cn1cc(-c2[nH]c3nccc(N4CCN(C(=O)[C@H]5C[C@H](C#N)C5)CC4)c3c2Cl)cn1 [Compound 299] | ≤ 0.1 | ≤ 0.01
24 | O=C(OC1COC1)N1CCN(c2ccnc3[nH]c(-c4cnn(C5COC5)c4)cc23)CC1 [Compound 300] | 0.1 to 0.5 | ≤ 0.01
25 | O=C(OC1COC1)N1CCN(c2ccnc3[nH]c(-c4cn(C5COC5)cn4)cc23)CC1 [Compound 301] | 0.1 to 0.5 | ≤ 0.01
26 | O=C(OC1COC1)N1CCN(c2ccnc3[nH]c(-c4cn5c(n4)COCC5)cc23)CC1 [Compound 302] | ≤ 0.1 | ≤ 0.01
27 | Cc1nc(-c2[nH]c3nccc(N4CCN(C(=O)OC5COC5)CC4)c3c2C#N)cs1 [Compound 303] | ≤ 0.1 | ≤ 0.01
28 | Cc1nn(C(C)C)cc1-c1cc2c(N3CCN(C(=O)OC4COC4)CC3)ccnc2[nH]1 [Compound 304] | ≤ 0.1 | ≤ 0.01

Row | Structure (SMILES) | IC50 [1] [µM] | IC50 [2] [µM]
29 | Cc1c(-c2cc3c(N4CCN(C(=O)OC5COC5)CC4)ccnc3[nH]2)cnn1C(C)C [Compound 305] | 0.1 to 0.5 | ≤ 0.01
30 | CS(=O)(=O)c1ccc(-c2cc3c(N4CCN(C(=O)C5CC5)CC4)ccnc3[nH]2)cc1 [Compound 307] | 0.1 to 0.5 | ≤ 0.01
31 | Cn1cc(-c2[nH]c3nccc(N4CCN(C(=O)OCC(F)F)CC4)c3c2Cl)cn1 [Compound 308] | ≤ 0.1 | ≤ 0.01
32 | CN(C)c1nc(-c2cc3c(N4CCN(C(=O)OC5COC5)CC4)ccnc3[nH]2)cn1C [Compound 310] | ≤ 0.1 | ≤ 0.01
33 | O=C(OC1CC1)N1CCN(c2ccnc3[nH]c(-c4nc5c(s4)COCC5)cc23)CC1 [Compound 311] | ≤ 0.1 | ≤ 0.01
34 | O=C(OC1COC1)N1CCN(c2ccnc3[nH]c(-c4ncc(C5CC5)s4)cc23)CC1 [Compound 312] | ≤ 0.1 | ≤ 0.01
35 | O=C(OC1COC1)N1CCN(c2ccnc3[nH]c(-c4nc(C5CC5)cs4)cc23)CC1 [Compound 313] | 0.1 to 0.5 | ≤ 0.01
36 | O=C(C1CC1)N1CCN(c2ccnc3[nH]c(-c4cnn(Cc5ccccc5)c4)cc23)CC1 [Compound 315] | ≤ 0.1 | ≤ 0.01
37 | CC(C)c1cnc(-c2cc3c(N4CCN(C(=O)OC5COC5)CC4)ccnc3[nH]2)s1 [Compound 316] | ≤ 0.1 | ≤ 0.01
38 | CC(C)c1csc(-c2cc3c(N4CCN(C(=O)OC5COC5)CC4)ccnc3[nH]2)n1 [Compound 317] | 0.1 to 0.5 | ≤ 0.01
39 | Cn1cc(-c2[nH]c3nccc(N4CCN(C(=O)C5CC5)CC4)c3c2Br)cn1 [Compound 320] | 0.1 to 0.5 | ≤ 0.01
40 | Cc1nc(-c2[nH]c3nccc(N4CCN(C(=O)OCC(F)F)CC4)c3c2C#N)cn1C [Compound 321] | ≤ 0.1 | ≤ 0.01
41 | N#CC1(c2ccc(-c3cc4c(N5CCN(C(=O)C6CC6)CC5)ccnc4[nH]3)c(F)c2)CC1 [Compound 322] | ≤ 0.1 | ≤ 0.01
42 | Cc1nc(-c2cc3c(N4CCN(C(=O)O[C@H]5C[C@H](F)C5)CC4)ccnc3[nH]2)sc1C [Compound 323] | ≤ 0.1 | ≤ 0.01
43 | O=C(c1ccc(-c2cc3c(N4CCN(C(=O)C5CC5)CC4)ccnc3[nH]2)cc1)N1CCC1 [Compound 324] | 0.1 to 0.5 | ≤ 0.01
44 | Cc1nc(-c2cc3c(N4CCN(C(=O)OC5CC(F)(F)C5)CC4)ccnc3[nH]2)cn1C [Compound 325] | ≤ 0.1 | ≤ 0.01
45 | Cc1nc(-c2cc3c(N4CCN(C(=O)O[C@@H]5CCC5(F)F)CC4)ccnc3[nH]2)cn1C [Compound 326] | ≤ 0.1 | ≤ 0.01
46 | O=C(C1CC1)N1CCN(c2ccnc3[nH]c(-c4ccc(C5CCCOC5)cc4)cc23)CC1 (centres unmarked) [Compound 328] | ≤ 0.1 | ≤ 0.01
47 | O=C(C1CC1)N1CCN(c2ccnc3[nH]c(-c4ccc(C5(O)CCCC5)cc4)cc23)CC1 [Compound 329] | ≤ 0.1 | ≤ 0.01
48 | Cn1cc(-c2[nH]c3nccc(N4CCN(C(=O)O[C@H]5CCOC5)CC4)c3c2Cl)cn1 [Compound 330] | ≤ 0.1 | ≤ 0.01
49 | Cc1nc(-c2[nH]c3nccc(N4CCN(C(=O)OC5COC5)CC4)c3c2Cl)cn1C [Compound 331] | ≤ 0.1 | ≤ 0.01
50 | Cn1cc(-c2[nH]c3nccc(N4CCN(C(=O)O[C@@H]5CCOC5)CC4)c3c2Cl)cn1 [Compound 332] | 0.1 to 0.5 | ≤ 0.01
51 | Cc1nn(C)cc1-c1cc2c(N3CCN(C(=O)[C@H]4CC[C@H](C#N)CC4)CC3)ccnc2[nH]1 [Compound 333] | 0.1 to 0.5 | ≤ 0.01
52 | Cc1c(-c2cc3c(N4CCN(C(=O)[C@H]5CC[C@H](C#N)CC5)CC4)ccnc3[nH]2)cnn1C [Compound 334] | 0.1 to 0.5 | ≤ 0.01
53 | O=C(C1CC1)N1CCN(c2ccnc3[nH]c(-c4ccc(N5CCOCC5)cc4)cc23)CC1 [Compound 335] | ≤ 0.1 | ≤ 0.01
54 | Cn1ncc(-c2cc3c(N4CCN(C(=O)OC5COC5)CC4)ccnc3[nH]2)c1C(F)F [Compound 336] | 0.1 to 0.5 | ≤ 0.01
55 | Cc1nc(-c2[nH]c3nccc(N4CCN(C(=O)OCC(F)F)CC4)c3c2C#N)cs1 [Compound 337] | ≤ 0.1 | ≤ 0.01
